One data set in a line: physchem. In kind it is physicochemical. The protocol: A lipophilicity study was also performed right after the SPE method purification and ethanol evaporation. For each DOTA radioconjugate, the lipophilicity value was estimated as the logarithm of the distribution coefficient (D) based on the ratio of the radioactivity of the organic phase to the radioactivity of the aqueous phase in the n-octanol/PBS (pH 7.40) system. Simultaneously, the stability of the studied radioconjugate during the experiment was verified through the HPLC analysis of the aqueous phase.
A solution of isolated radioconjugate (approximately 0.5 MBq for ^177Lu-radioconjugates or 5 MBq for ^68Ga-radioconjugates) in 500 µL of 0.1 M PBS buffer (pH 7.40) and 500 µL of n-octanol was vigorously stirred and centrifuged (13,500 rpm for 5 min) to separate the immiscible phases. Then, the radioactivity of samples from both phases were measured using a well-type NaI(Tl) detector. The distribution coefficient, D, was calculated dividing the radioactivity of the radioconjugate in the organic phase to that in the aqueous phase. Each experiment was performed in triplicate and averaged. In parallel, the aqueous phases were analysed by HPLC to confirm the stability of studied radioconjugate during the experiment period. The lipophilicity value of each radioconjugates was expressed as the logarithm of its D value.

In the next data set the target is T1, rNK1R (Rattus norvegicus, UniProt P14600).
T1 construct: As a source of the receptor proteins, homogenates obtained from rat brains; from tissue; host or cells: rat brain homogenate
Nature of the data set: Competitive radioligand binding assay, rat brain homogenates, [3H]-(Sar9,Met(O2)11)-Substance P. The conditions noted are these: mean of three independent experiments in duplicate unless stated; for IC50: read-out: IC50 (Mean ± SD) rNK1R. The protocol: (§1) The binding affinity of the tested compounds for human and rat NK1R was determined in competitive radioligand binding assays following the method previously described. As a source of the receptor proteins, homogenates obtained from rat brains (obtained as described in Ref [30]) or homogenates made from hNK1-CHO cells were used. […] The final reaction volumes were 250 μL and 1 mL, for the human and rat NK1R determinations, respectively. […] The binding reaction mixtures were incubated in a shaking water bath at 25 °C for 60 min. The reaction was terminated by rapid filtration through Whatman GF/B filter (Gaithersburg, MD) presoaked in 0.5% polyethyleneimine and washed three times with 2 mL of cold saline. The filters were placed in 24-well plates and immersed in a Betaplate Scint scintillation solution (Perkin Elmer, Waltham, MA, USA). The filter-bound radioactivity was determined by scintillation counter MicroBeta LS, Trilux (PerkinElmer, Waltham, MA, USA).
(§2) The displacement curves were drawn and the mean IC50 values were determined with standard deviations (GraphPad Prism version 8.0, San Diego, CA, USA). At least three independent experiments (carried out in duplicate) were performed.

Another data set addresses T2, hNK1R (Homo sapiens, UniProt P25103).
T2 construct: expressed in transfected cells; host or cells: CHO-K1 (hNK1-CHO), gift from Dr. Attila Keresztes and Dr. John M. Streicher
Nature of the data set: Competitive radioligand binding assay, hNK1-CHO cell homogenates, [3H]-(Sar9,Met(O2)11)-Substance P. The conditions noted are these: for IC50: hNK1-CHO cell homogenates, mean of three independent experiments in duplicate unless stated, read-out: IC50 (Mean ± SD) hNK1R; for fold weaker hNK1R binding than parent compound: relative to L732,138 (1c). Here is the method: The CHO-K1 cells with a stable overexpression of the human NK1 receptor, denoted further on as hNK1-CHO cells, were obtained as a gift from Dr. Attila Keresztes and Dr. John M. Streicher. The cells were maintained in a humidified atmosphere with 5% CO2 at 37 °C, in Ham’s F12 medium (Corning, Corning, NY, USA) supplemented with 10% Foetal Bovine Serum (CytoGen, Wetzlar, Germany) and 400 μg/mL G418 (Corning, Corning, NY, USA).
When the cells reached approximately 90% confluence, they were harvested by treatment with 0.05% trypsin/EDTA (Corning, Corning, NY, USA). After centrifugation at 1500 rpm for 5 min, the cells were homogenized in a glass tissue homogenizer in ice-cold 50 mM Tris-HCl buffer (pH 7.4) with 5 mM MnCl2. The preparation was collected by centrifugation at 13,000 rpm for 25 min at 4 °C, and then the pellet was suspended in 50 mM Tris-HCl buffer. The homogenates were stored at −80 °C for later use. The BCA assay (Thermo Scientific, Waltham, MA, USA) was used to determine the protein concentration in the homogenates.
as §1, §2

Setting [1] is: pH 7.4, logD7.4 (Mean ± SD) 68Ga-.
The mark [2] stands for this setting: pH 7.4, logD7.4 (Mean ± SD) 177Lu-.

20 molecules from PMC8835841, “Novel NK1R-Targeted ^68Ga-/^177Lu-Radioconjugates with Potential Application against Glioblastoma Multiforme: Preliminary Exploration of Structure–Activity Relationships” (International Journal of Molecular Sciences, 2022) can be followed below.

Bounds are passed on as bounds.

The logD is lipophilicity at a set pH, counting ionised and neutral species. High values mean a more lipophilic compound, low ones a more hydrophilic compound. The term IC50 denotes the concentration that inhibits the measured activity by half.

T2 sequence (P25103 whole entry): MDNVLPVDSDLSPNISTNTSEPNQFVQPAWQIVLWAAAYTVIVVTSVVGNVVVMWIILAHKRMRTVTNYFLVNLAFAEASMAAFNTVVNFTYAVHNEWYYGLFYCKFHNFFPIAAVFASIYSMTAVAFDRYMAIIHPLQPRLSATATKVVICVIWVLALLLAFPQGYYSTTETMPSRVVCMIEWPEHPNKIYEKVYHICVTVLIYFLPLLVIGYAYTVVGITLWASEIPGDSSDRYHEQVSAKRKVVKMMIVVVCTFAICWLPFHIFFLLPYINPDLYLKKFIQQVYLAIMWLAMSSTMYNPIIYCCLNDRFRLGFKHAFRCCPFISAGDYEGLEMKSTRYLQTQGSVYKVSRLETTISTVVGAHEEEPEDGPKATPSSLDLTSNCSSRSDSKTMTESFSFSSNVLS
T1 sequence (P14600 whole entry): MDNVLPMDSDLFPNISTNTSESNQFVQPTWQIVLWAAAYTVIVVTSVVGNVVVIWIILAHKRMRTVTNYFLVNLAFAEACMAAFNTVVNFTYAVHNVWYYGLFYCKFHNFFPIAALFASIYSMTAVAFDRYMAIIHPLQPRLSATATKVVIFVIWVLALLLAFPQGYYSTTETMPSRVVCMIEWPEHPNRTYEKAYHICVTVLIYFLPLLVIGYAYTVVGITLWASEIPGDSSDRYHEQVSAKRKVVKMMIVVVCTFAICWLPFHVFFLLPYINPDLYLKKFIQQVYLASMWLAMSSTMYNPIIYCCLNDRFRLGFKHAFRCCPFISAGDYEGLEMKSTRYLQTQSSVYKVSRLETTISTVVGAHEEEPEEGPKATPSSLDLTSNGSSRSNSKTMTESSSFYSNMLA

In the case of `O=C(O)CN1CCN(CC(=O)O)CCN(CC(=O)NCCCCCC(=O)N[C@@H](Cc2c[nH]c3ccccc23)C(=O)OCc2cc(C(F)(F)F)cc(C(F)(F)F)c2)CCN(CC(=O)O)CC1` [[^68Ga]Ga-4d, metal not drawn], in “physchem” (setting [1]), the logD is 0.071 ± 0.023.
For the molecule `CC(C)(C)OC(=O)N[C@@H](Cc1c[nH]c2ccccc12)C(=O)OCc1cc(C(F)(F)F)cc(C(F)(F)F)c1` [Compound 1a, 3,5-bis(trifluoromethyl)benzyl (tert-butoxycarbonyl)-L-tryptophanate], at rNK1R, the IC50 was 2930 ± 1520 nM. At hNK1R, the IC50 worked out at 180 ± 112 nM and the “fold weaker hNK1R binding than parent compound” value is 7 ×.
Consider `C[C@@H](NC(=O)OC(C)(C)C)C(=O)N[C@H](C)C(=O)N[C@@H](Cc1c[nH]c2ccccc12)C(=O)OCc1cc(C(F)(F)F)cc(C(F)(F)F)c1` [Compound 3a, 3,5-bis(trifluoromethyl)benzyl (tert-butoxycarbonyl)-D-alanyl-D-alanyl-L-tryptophanate], for which, at rNK1R, the “IC50 (Mean ± SD) rNK1R” value was “submicromolar”. Further, the IC50 on rNK1R stood at 745 ± 311 nM; at hNK1R, 13.9 ± 11.2 nM.
For the molecule `O=C(O)CN1CCN(CC(=O)O)CCN(CC(=O)NCCCCCC(=O)NCCCCCC(=O)N[C@@H](Cc2c[nH]c3ccccc23)C(=O)OCc2cc(C(F)(F)F)cc(C(F)(F)F)c2)CCN(CC(=O)O)CC1` [[^68Ga]Ga-5d, metal not drawn], in the data set “physchem” (setting [1]), the logD was -0.466 ± 0.016.
As for `NCCCCCC(=O)N[C@@H](Cc1c[nH]c2ccccc12)C(=O)OCc1cc(C(F)(F)F)cc(C(F)(F)F)c1` [Compound 4b, (S)-6-((1-((3,5-bis(trifluoromethyl)benzyl)oxy)-3-(1H-indol-3-yl)-1-oxopropan-2-yl)amino)-6-oxohexan-1-aminium 2,2,2-trifluoroacetate], the IC50 amounted to 1400 ± 319 nM at rNK1R and 35.4 ± 23.6 nM on hNK1R.
The like results for `CC(C)(C)OC(=O)NCCCCCC(=O)N[C@@H](Cc1c[nH]c2ccccc12)C(=O)OCc1cc(C(F)(F)F)cc(C(F)(F)F)c1` [Compound 4a, 3,5-bis(trifluoromethyl)benzyl (6-((tert-butoxycarbonyl)amino)hexanoyl)-L-tryptophanate] were, in that order, 1660 ± 1050 nM and 60.7 ± 31.9 nM.
For the molecule `CC(=O)NCCCCCC(=O)NCCCCCC(=O)N[C@@H](Cc1c[nH]c2ccccc12)C(=O)OCc1cc(C(F)(F)F)cc(C(F)(F)F)c1` [Compound 5c, 3,5-bis(trifluoromethyl)benzyl (6-(6-acetamidohexanamido)hexanoyl)-L-tryptophanate], the “IC50 (Mean ± SD) rNK1R” value on rNK1R is recorded as “submicromolar”. Further, the results for the 50% inhibitory concentration (IC50) on rNK1R and at hNK1R were 655 ± 120 nM and 14.3 ± 5.2 nM, respectively.
`CC(=O)N[C@H](C)C(=O)N[C@@H](Cc1c[nH]c2ccccc12)C(=O)OCc1cc(C(F)(F)F)cc(C(F)(F)F)c1` [Compound 2c, 3,5-bis(trifluoromethyl)benzyl acetyl-D-alanyl-L-tryptophanate]: the IC50 stood at 2280 ± 703 nM on rNK1R and 25.3 ± 0.4 nM on hNK1R.
The like results for `CC(=O)N[C@H](C)C(=O)N[C@H](C)C(=O)N[C@@H](Cc1c[nH]c2ccccc12)C(=O)OCc1cc(C(F)(F)F)cc(C(F)(F)F)c1` [Compound 3c, 3,5-bis(trifluoromethyl)benzyl acetyl-D-alanyl-D-alanyl-L-tryptophanate] were, in that order, 1140 ± 289 nM and 13.5 ± 12.1 nM.
The like results for `O=C(O)CN1CCN(CC(=O)O)CCN(CC(=O)N[C@@H](Cc2c[nH]c3ccccc23)C(=O)OCc2cc(C(F)(F)F)cc(C(F)(F)F)c2)CCN(CC(=O)O)CC1` [Ga-1d] were, in that order, 112 ± 3 nM and 5.1 ± 2 nM.
In turn, `C[C@@H](NC(=O)CN1CCN(CC(=O)O)CCN(CC(=O)O)CCN(CC(=O)O)CC1)C(=O)N[C@H](C)C(=O)N[C@@H](Cc1c[nH]c2ccccc12)C(=O)OCc1cc(C(F)(F)F)cc(C(F)(F)F)c1` [[^177Lu]Lu-3d, metal not drawn] yielded a logD in the data set “physchem” (setting [2]) of 0.619 ± 0.007.
As to `CC(C)(C)OC(=O)NCCCCCC(=O)NCCCCCC(=O)N[C@@H](Cc1c[nH]c2ccccc12)C(=O)OCc1cc(C(F)(F)F)cc(C(F)(F)F)c1` [Compound 5a, 3,5-bis(trifluoromethyl)benzyl (6-(6-((tert-butoxycarbonyl)amino)hexanamido)hexanoyl)-L-tryptophanate], on rNK1R, the “IC50 (Mean ± SD) rNK1R” value is recorded as “submicromolar” and the IC50 stood at 762 ± 295 nM. Further, the half-maximal inhibitory concentration (IC50) on hNK1R was determined as 4.5 ± 2.8 nM.
Consider `C[C@@H](N)C(=O)N[C@@H](Cc1c[nH]c2ccccc12)C(=O)OCc1cc(C(F)(F)F)cc(C(F)(F)F)c1` [Compound 2b, (R)-1-(((S)-1-((3,5-bis(trifluoromethyl)benzyl)oxy)-3-(1H-indol-3-yl)-1-oxopropan-2-yl)amino)-1-oxopropan-2-aminium 2,2,2-trifluoroacetate], for which the values for the IC50 on rNK1R and at hNK1R were 4680 ± 1320 nM and 25.4 ± 12.5 nM, respectively.
As to `O=C(O)CN1CCN(CC(=O)O)CCN(CC(=O)NCCCCCC(=O)NCCCCCC(=O)N[C@@H](Cc2c[nH]c3ccccc23)C(=O)OCc2cc(C(F)(F)F)cc(C(F)(F)F)c2)CCN(CC(=O)O)CC1` [[^177Lu]Lu-5d, metal not drawn], the logD in “physchem” (setting [2]) stood at 0.294 ± 0.013.
For the molecule `C[C@@H](NC(=O)OC(C)(C)C)C(=O)N[C@@H](Cc1c[nH]c2ccccc12)C(=O)OCc1cc(C(F)(F)F)cc(C(F)(F)F)c1` [Compound 2a, 3,5-bis(trifluoromethyl)benzyl (tert-butoxycarbonyl)-D-alanyl-L-tryptophanate], the figures for the IC50 on rNK1R and at hNK1R were 1530 ± 279 nM and 135 ± 108 nM, respectively.
Regarding `N[C@@H](Cc1c[nH]c2ccccc12)C(=O)OCc1cc(C(F)(F)F)cc(C(F)(F)F)c1.O=C(O)C(F)(F)F` [Compound 1b, (S)-1-((3,5-bis(trifluoromethyl)benzyl)oxy)-3-(1H-indol-3-yl)-1-oxopropan-2-aminium 2,2,2-trifluoroacetate], the half-inhibitory concentration (IC50) on rNK1R was above 10000 nM. Besides, at hNK1R, the IC50 came to 359 ± 132 nM and the “fold weaker hNK1R binding than parent compound” value is given as 14 ×.
Take `C[C@@H](N)C(=O)N[C@H](C)C(=O)N[C@@H](Cc1c[nH]c2ccccc12)C(=O)OCc1cc(C(F)(F)F)cc(C(F)(F)F)c1` [Compound 3b, (R)-1-(((R)-1-(((S)-1-((3,5-bis(trifluoromethyl)benzyl)oxy)-3-(1H-indol-3-yl)-1-oxopropan-2-yl)amino)-1-oxopropan-2-yl)amino)-1-oxopropan-2-aminium 2,2,2-trifluoroacetate]: the half-inhibitory concentration (IC50) on rNK1R is 4010 ± 1370 nM; on hNK1R it was 80.8 ± 59.7 nM.
Regarding `NCCCCCC(=O)NCCCCCC(=O)N[C@@H](Cc1c[nH]c2ccccc12)C(=O)OCc1cc(C(F)(F)F)cc(C(F)(F)F)c1.O=C(O)C(F)(F)F` [Compound 5b, (S)-6-((6-((1-((3,5-bis(trifluoromethyl)benzyl)oxy)-3-(1H-indol-3-yl)-1-oxopropan-2-yl)amino)-6-oxohexyl)amino)-6-oxohexan-1-aminium 2,2,2-trifluoroacetate], on rNK1R, the “IC50 (Mean ± SD) rNK1R” value is reported as “submicromolar” and the half-maximal inhibitory concentration (IC50) stood at 572 ± 41 nM. Further, at hNK1R, the IC50 was 20.4 ± 10.2 nM.
In the case of `O=C(O)CN1CCN(CC(=O)O)CCN(CC(=O)NCCCCCC(=O)N[C@@H](Cc2c[nH]c3ccccc23)C(=O)OCc2cc(C(F)(F)F)cc(C(F)(F)F)c2)CCN(CC(=O)O)CC1` [Compound 4d], the IC50 on hNK1R amounted to 8.7 ± 3.2 nM.
`CC(=O)NCCCCCC(=O)N[C@@H](Cc1c[nH]c2ccccc12)C(=O)OCc1cc(C(F)(F)F)cc(C(F)(F)F)c1` [Compound 4c, 3,5-bis(trifluoromethyl)benzyl (6-acetamidohexanoyl)-L-tryptophanate]: the half-inhibitory concentration (IC50) at rNK1R was 1950 ± 641 nM; at hNK1R it was 83.1 ± 69.3 nM.
